In ChEMBL document CHEMBL3994622, “Design and synthesis of new RAF kinase-inhibiting antiproliferative quinoline derivatives. Part 2: Diarylurea derivatives” (Eur J Med Chem, 2017):

Legend:
[1] = test system: COLO 205; test: Growth inhibition of human COLO205 cells assessed as cell growth at 5 uM incubated for 48 hrs by sulforhodamine B assay relative to control; assay type: functional; settings: COLO 205, 48 h, read-out: Activity
[2] = test system: SNB-19; test: Growth inhibition of human SNB19 cells assessed as cell growth at 50 uM incubated for 48 hrs by sulforhodamine B assay relative to control; assay type: functional; settings: SNB-19, 48 h, read-out: Activity
[3] = test system: NCI-H322M; test: Growth inhibition of human NCI-H322M cells assessed as cell growth at 0.05 uM incubated for 48 hrs by sulforhodamine B assay relative to control; assay type: functional; settings: read-out: Activity
[4] = test system: UO-31; test: Growth inhibition of human UO31 cells assessed as cell growth at 0.005 uM incubated for 48 hrs by sulforhodamine B assay relative to control; assay type: functional; settings: UO-31, 48 h, read-out: Activity
[5] = test system: DU-145; test: Growth inhibition of human DU145 cells assessed as cell growth at 0.05 uM incubated for 48 hrs by sulforhodamine B assay relative to control; assay type: functional; settings: DU-145, 48 h, read-out: Activity
[6] = test system: MOLT-4; test: Growth inhibition of human MOLT4 cells assessed as cell growth at 5 uM incubated for 48 hrs by sulforhodamine B assay relative to control; assay type: functional; settings: MOLT-4, 48 h, read-out: Activity
[7] = test system: SR; test: Growth inhibition of human SR cells assessed as cell growth at 5 uM incubated for 48 hrs by sulforhodamine B assay relative to control; assay type: functional; settings: read-out: Activity
[8] = test system: HL-60(TB); test: Growth inhibition of human HL-60(TB) cells assessed as cell growth at 0.05 uM incubated for 48 hrs by sulforhodamine B assay relative to control; assay type: functional; settings: HL-60, 48 h, read-out: Activity
[9] = test system: UACC-62; test: Growth inhibition of human UACC62 cells assessed as cell growth at 5 uM incubated for 48 hrs by sulforhodamine B assay relative to control; assay type: functional; settings: UACC-62, 48 h, read-out: Activity
[10] = test system: RPMI-8226; test: Growth inhibition of human RPMI8226 cells assessed as cell growth at 50 uM incubated for 48 hrs by sulforhodamine B assay relative to control; assay type: functional; settings: RPMI-8226, 48 h, read-out: Activity
[11] = test system: NCI/ADR-RES; test: Growth inhibition of human NCI/ADR-RES cells assessed as cell growth at 0.5 uM incubated for 48 hrs by sulforhodamine B assay relative to control; assay type: functional; settings: read-out: Activity
[12] = test system: COLO 205; test: Growth inhibition of human COLO205 cells assessed as cell growth at 50 uM incubated for 48 hrs by sulforhodamine B assay relative to control; assay type: functional; settings: COLO 205, 48 h, read-out: Activity
[13] = test system: Hs-578T; test: Growth inhibition of human Hs 578T cells assessed as cell growth at 0.005 uM incubated for 48 hrs by sulforhodamine B assay relative to control; assay type: functional; settings: read-out: Activity
[14] = test system: UACC-62; test: Growth inhibition of human UACC62 cells assessed as cell growth at 0.5 uM incubated for 48 hrs by sulforhodamine B assay relative to control; assay type: functional; settings: UACC-62, 48 h, read-out: Activity
[15] = test system: IGROV-1; test: Growth inhibition of human IGROV1 cells assessed as cell growth at 5 uM incubated for 48 hrs by sulforhodamine B assay relative to control; assay type: functional; settings: IGROV-1, 48 h, read-out: Activity
[16] = test system: NCI-H460; test: Growth inhibition of human NCI-H460 cells assessed as cell growth at 0.05 uM incubated for 48 hrs by sulforhodamine B assay relative to control; assay type: functional; settings: NCI-H460, 48 h, read-out: Activity
[17] = test system: LOX IMVI; test: Growth inhibition of human LOXIMVI cells assessed as cell growth at 0.005 uM incubated for 48 hrs by sulforhodamine B assay relative to control; assay type: functional; settings: read-out: Activity
[18] = test system: RPMI-8226; test: Growth inhibition of human RPMI8226 cells assessed as cell growth at 0.005 uM incubated for 48 hrs by sulforhodamine B assay relative to control; assay type: functional; settings: RPMI-8226, 48 h, read-out: Activity
[19] = test system: SK-OV-3; test: Growth inhibition of human SKOV3 cells assessed as cell growth at 5 uM incubated for 48 hrs by sulforhodamine B assay relative to control; assay type: functional; settings: SK-OV-3, 48 h, read-out: Activity
[20] = test system: BT-549; test: Growth inhibition of human BT549 cells assessed as cell growth at 5 uM incubated for 48 hrs by sulforhodamine B assay relative to control; assay type: functional; settings: BT-549, 48 h, read-out: Activity
[21] = test system: EKVX; test: Growth inhibition of human EKVX cells assessed as cell growth at 0.05 uM incubated for 48 hrs by sulforhodamine B assay relative to control; assay type: functional; settings: read-out: Activity
[22] = test system: UACC-257; test: Growth inhibition of human UACC257 cells assessed as cell growth at 0.05 uM incubated for 48 hrs by sulforhodamine B assay relative to control; assay type: functional; settings: UACC-257, 48 h, read-out: Activity
[23] = test system: SK-MEL-2; test: Growth inhibition of human SK-MEL-2 cells assessed as cell growth at 5 uM incubated for 48 hrs by sulforhodamine B assay relative to control; assay type: functional; settings: SK-MEL-2, 48 h, read-out: Activity
[24] = test system: SN12C; test: Growth inhibition of human SN12C cells assessed as cell growth at 0.005 uM incubated for 48 hrs by sulforhodamine B assay relative to control; assay type: functional; settings: read-out: Activity
[25] = test system: SF-268; test: Growth inhibition of human SF268 cells assessed as cell growth at 0.005 uM incubated for 48 hrs by sulforhodamine B assay relative to control; assay type: functional; settings: SF-268, 48 h, read-out: Activity
[26] = test system: HCC 2998; test: Growth inhibition of human HCC2998 cells assessed as cell growth at 0.5 uM incubated for 48 hrs by sulforhodamine B assay relative to control; assay type: functional; settings: HCC 2998, 48 h, read-out: Activity
[27] = test system: Malme-3M; test: Growth inhibition of human MALME-3M cells assessed as cell growth at 0.05 uM incubated for 48 hrs by sulforhodamine B assay relative to control; assay type: functional; settings: read-out: Activity
[28] = test system: 786-0; test: Growth inhibition of human 786-0 cells assessed as cell growth at 0.05 uM incubated for 48 hrs by sulforhodamine B assay relative to control; assay type: functional; settings: 786-0, 48 h, read-out: Activity
[29] = test system: SF-268; test: Growth inhibition of human SF268 cells assessed as cell growth at 100 uM incubated for 48 hrs by sulforhodamine B assay relative to control; assay type: functional; settings: SF-268, 48 h, read-out: Activity
[30] = test system: HCT-15; test: Growth inhibition of human HCT15 cells assessed as cell growth at 100 uM incubated for 48 hrs by sulforhodamine B assay relative to control; assay type: functional; settings: HCT-15, 48 h, read-out: Activity
[31] = test system: MDA-MB-468; test: Growth inhibition of human MDA-MB-468 cells assessed as cell growth at 100 uM incubated for 48 hrs by sulforhodamine B assay relative to control; assay type: functional; settings: MDA-MB-468, 48 h, read-out: Activity
[32] = molecular target: RAC-alpha serine/threonine-protein kinase (Homo sapiens) (UniProt P31749); test: Inhibition of human AKT1 at 10 uM using KGSGSGRPRTSSFAEG as substrate in presence of [33P]ATP by Hotspot assay relative to control
RAC-alpha serine/threonine-protein kinase (Homo sapiens), sequence (P31749 whole entry): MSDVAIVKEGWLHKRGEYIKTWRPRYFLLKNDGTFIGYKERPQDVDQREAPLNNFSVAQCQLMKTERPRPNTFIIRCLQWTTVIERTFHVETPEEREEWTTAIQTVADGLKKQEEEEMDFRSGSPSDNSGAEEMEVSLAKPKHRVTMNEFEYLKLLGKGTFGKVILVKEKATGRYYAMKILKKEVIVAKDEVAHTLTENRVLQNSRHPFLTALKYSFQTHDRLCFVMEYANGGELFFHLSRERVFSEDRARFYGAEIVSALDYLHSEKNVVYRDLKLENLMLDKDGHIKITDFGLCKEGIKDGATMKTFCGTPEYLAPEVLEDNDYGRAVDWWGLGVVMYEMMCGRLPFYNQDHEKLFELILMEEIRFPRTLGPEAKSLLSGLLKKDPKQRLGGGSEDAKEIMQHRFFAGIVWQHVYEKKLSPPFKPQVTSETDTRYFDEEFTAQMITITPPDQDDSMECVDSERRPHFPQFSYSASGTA

[33] = molecular target: Epidermal growth factor receptor (Homo sapiens) (UniProt P00533); test: Inhibition of human EGFR at 10 uM using poly[Glu:Tyr] (4:1) as substrate in presence of [33P]ATP by Hotspot assay relative to control
Epidermal growth factor receptor (Homo sapiens), sequence (P00533 whole entry): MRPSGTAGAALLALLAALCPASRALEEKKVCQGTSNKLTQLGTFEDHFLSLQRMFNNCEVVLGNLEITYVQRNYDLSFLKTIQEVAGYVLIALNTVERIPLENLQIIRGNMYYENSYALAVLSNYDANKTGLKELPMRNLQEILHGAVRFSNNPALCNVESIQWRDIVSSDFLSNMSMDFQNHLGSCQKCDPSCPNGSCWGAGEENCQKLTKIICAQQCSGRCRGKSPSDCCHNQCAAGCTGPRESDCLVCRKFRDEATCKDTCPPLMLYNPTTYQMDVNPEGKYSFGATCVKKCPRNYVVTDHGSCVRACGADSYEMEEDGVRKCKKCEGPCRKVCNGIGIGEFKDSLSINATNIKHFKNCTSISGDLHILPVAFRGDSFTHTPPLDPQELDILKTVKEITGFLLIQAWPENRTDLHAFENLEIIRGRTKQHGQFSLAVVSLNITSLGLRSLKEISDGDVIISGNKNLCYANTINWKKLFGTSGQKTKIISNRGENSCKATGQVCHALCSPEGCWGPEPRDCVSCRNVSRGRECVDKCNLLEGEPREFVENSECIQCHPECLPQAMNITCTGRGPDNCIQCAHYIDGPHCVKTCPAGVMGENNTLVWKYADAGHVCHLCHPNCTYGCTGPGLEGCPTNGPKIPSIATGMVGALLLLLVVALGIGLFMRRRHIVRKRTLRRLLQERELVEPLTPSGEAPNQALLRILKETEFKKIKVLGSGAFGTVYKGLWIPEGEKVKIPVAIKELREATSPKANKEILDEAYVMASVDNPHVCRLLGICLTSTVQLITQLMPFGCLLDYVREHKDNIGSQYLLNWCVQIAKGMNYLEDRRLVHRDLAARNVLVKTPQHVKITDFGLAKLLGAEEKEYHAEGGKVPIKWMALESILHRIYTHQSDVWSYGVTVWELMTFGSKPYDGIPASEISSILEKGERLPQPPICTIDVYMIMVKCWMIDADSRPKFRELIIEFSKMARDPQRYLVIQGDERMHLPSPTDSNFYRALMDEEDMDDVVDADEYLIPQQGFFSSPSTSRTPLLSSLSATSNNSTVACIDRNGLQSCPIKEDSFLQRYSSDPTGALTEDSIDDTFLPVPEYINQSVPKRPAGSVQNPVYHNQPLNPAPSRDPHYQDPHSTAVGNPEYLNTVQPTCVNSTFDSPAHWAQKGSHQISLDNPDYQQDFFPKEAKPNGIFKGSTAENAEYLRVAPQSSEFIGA

In the case of COc1cc2cc(Oc3ccc(NC(=O)Nc4cccc(C(F)(F)F)c4)cc3)c(C)nc2cc1OC, the growth at 5 µM [1] is reported as -48%, the growth at 50 µM [2] is reported as -26% and the growth at 0.05 µM [3] is reported as 96%. It also gave a growth at 0.005 µM [4] of 90%, a growth at 0.05 µM [5] of 94% and a growth at 5 µM [6] of 4%. For the same compound, the growth at 5 µM [7] was -19%, the growth at 0.05 µM [8] was 101% and the growth at 5 µM [9] was 22%. For the same compound, the growth at 50 µM [10] was -47%, the growth at 0.5 µM [11] was 95% and the growth at 50 µM [12] was -88%. For the same compound, the growth at 0.005 µM [13] was 90%, the growth at 0.5 µM [14] was 86% and the growth at 5 µM [15] was 31%. For the same compound, the growth at 0.05 µM [16] was 106%, the growth at 0.005 µM [17] was 98% and the growth at 0.005 µM [18] was 103%. It also gave a growth at 5 µM [19] of 18%, a growth at 5 µM [20] of 7% and a growth at 0.05 µM [21] of 102%. For the same compound, the growth at 0.05 µM [22] was 94%, the growth at 5 µM [23] was -34% and the growth at 0.005 µM [24] was 95%. The growth at 0.005 µM [25] was 90%, the growth at 0.5 µM [26] was 109% and the growth at 0.05 µM [27] was 96%. The growth at 0.05 µM [28] was 82%.

In the case of COc1cc2cc(Oc3ccc(NC(=O)Nc4cc(C(F)(F)F)cc(C(F)(F)F)c4)cc3)c(C)nc2cc1OC, the growth at 100 µM [29] is reported as -71%, the growth at 100 µM [30] is reported as -88% and the growth at 100 µM [31] is reported as -67%.

COc1cc2cc(Oc3ccc(NC(=O)Nc4ccc(Cl)c(C(F)(F)F)c4)cc3)c(C)nc2cc1OC gave an inhibition [32] of 0.06% and an inhibition [33] of -0.3%.
